Where a name gives a salt, the structure may show the parent alone.
Molecular target: SARS-CoV-2 Mac1 (Severe acute respiratory syndrome coronavirus 2, UniProt P0DTD1)
Experiment: biochemical
Details: for inhibition at 100 µM: read-out: %inhibition; for %inhibition: 100 µM, inhibitor

Structure (SMILES)	inhibition at 100 µM [%]	%inhibition [%]
CCCc1nn(C)c2c(=O)[nH]c(-c3cc(S(=O)(=O)N4CCN(C)CC4)ccc3OCC)nc12 [Sildenafil Citrate]	0	–
COc1cc([C@H]2Oc3cc([C@H]4Oc5cc(O)cc(O)c5C(=O)[C@@H]4O)ccc3O[C@@H]2CO)ccc1O [Silibinin]	0	–
O=C(O)c1ccc2c(c1)nc(Nc1cccc(Cl)c1)c1ccncc12 [Silmitasertib (CX-4945)]	0	–
C[C@H](Cc1cc2c(c(C(N)=O)c1)N(CCCO)CC2)NCCOc1ccccc1OCC(F)(F)F [Silodosin]	0	–
COc1ccc2c(O[C@@H]3C[C@H]4C(=O)N[C@]5(C(=O)NS(=O)(=O)C6CC6)C[C@H]5/C=C\CCCCN(C)C(=O)[C@@H]4C3)cc(-c3nc(C(C)C)cs3)nc2c1C [Simeprevir]	11.4	–
CCC(C)(C)C(=O)O[C@H]1C[C@@H](C)C=C2C=C[C@H](C)[C@H](CC[C@@H]3C[C@@H](O)CC(=O)O3)[C@H]21 [Simvastatin]	14	–
CN[C@@H]1[C@@H](O)[C@@H](O[C@@H]2[C@@H](O)[C@H](O[C@H]3OC(CN)=CC[C@H]3N)[C@@H](N)C[C@H]2N)OC[C@]1(C)O [Sisomicin sulfate]	0	–
N[C@@H]1CN(c2c(F)cc3c(=O)c(C(=O)O)cn([C@@H]4C[C@@H]4F)c3c2Cl)CC12CC2 [Sitafloxacin Hydrate]	5.2	–
N[C@@H](CC(=O)N1CCn2c(nnc2C(F)(F)F)C1)Cc1cc(F)c(F)cc1F [Sitagliptin]	0	–
CC(C)(C)C(=O)Oc1ccc(S(=O)(=O)Nc2ccccc2C(=O)NCC(=O)O)cc1 [Sivelestat (ONO-5046)]	0	–
Nc1ccc(C(=O)O)c(O)c1 [Sodium 4-Aminosalicylate]	0	–
Nc1ccc(C(=O)NCC(=O)O)cc1 [Sodium 4-aminohippurate Hydrate]	0	–
O=C(O)[C@H]1O[C@H](O)[C@H](O)[C@@H](O)[C@@H]1O [Sodium Gluconate]	0	–
O=C(O)CCCc1ccccc1 [Sodium Phenylbutyrate]	6.6	–
O=S(=O)(O)Oc1ccc(C(c2ccc(OS(=O)(=O)O)cc2)c2ccccn2)cc1 [Sodium Picosulfate]	1.51	–
O=C1O[C@H]([C@@H](O)CO)C(O)=C1O [Sodium ascorbate]	–	0
O=C(O)c1ccccc1 [Sodium benzoate]	–	0
CCCC(=O)O [Sodium butyrate]	0	–
O=C(O)O [Sodium carbonate]	0.406	–

Structure (SMILES)	inhibition at 100 µM [%]	%inhibition [%]
Cc1cc(S(=O)(=O)O)c2c(C)ccc(C(C)C)cc1-2 [Sodium gualenate]	12.6	–
O=C(O)c1ccccc1O [Sodium salicylate]	–	0
O=C(O)CCC(=O)O [Sodium succinate]	0	–
Nc1ccc(S(=O)(=O)Nc2ncccn2)cc1 [Sodium sulfadiazine]	–	0
CC(C)=CCOc1ccc(/C=C/C(=O)c2ccc(OCC=C(C)C)cc2OCC(=O)O)cc1 [Sofalcone]	14.1	–
CC(C)OC(=O)[C@H](C)N[P@](=O)(OC[C@H]1O[C@@H](n2ccc(=O)[nH]c2=O)[C@](C)(F)[C@@H]1O)Oc1ccccc1 [Sofosbuvir (PSI-7977, GS-7977)]	42.9	–
Cc1c(C(=O)Nc2ccc(N3C[C@@H](C)O[C@@H](C)C3)nc2)cccc1-c1ccc(OC(F)(F)F)cc1 [Sonidegib (Erismodegib, NVP-LDE225)]	0	–
CNC(=O)c1cc(Oc2ccc(NC(=O)Nc3ccc(Cl)c(C(F)(F)F)c3)cc2)ccn1 [Sorafenib Tosylate]	–	10.76
CNC(=O)c1cc(Oc2ccc(NC(=O)Nc3ccc(Cl)c(C(F)(F)F)c3)cc2)ccn1 [Sorafenib]	15.7	–
OC[C@@H](O)[C@@H](O)[C@H](O)[C@@H](O)CO [Sorbitol]	0	–
CCOc1ccc(Cc2cc([C@@H]3O[C@H](SC)[C@@H](O)[C@H](O)[C@H]3O)ccc2Cl)cc1 [Sotagliflozin (LX4211)]	0	–
CC(C)NCC(O)c1ccc(NS(C)(=O)=O)cc1 (stereo not drawn) [Sotalol HCl]	0	–
CN1CCN(c2nc(C3=C(c4c[nH]c5ccccc45)C(=O)NC3=O)c3ccccc3n2)CC1 [Sotrastaurin]	34.7	–
C[C@@H]1CN(c2c(F)c(N)c3c(=O)c(C(=O)O)cn(C4CC4)c3c2F)C[C@H](C)N1 [Sparfloxacin]	25.5	–
CN[C@@H]1[C@H](O)[C@H](NC)[C@H]2O[C@@]3(O)C(=O)C[C@@H](C)O[C@H]3O[C@@H]2[C@H]1O [Spectinomycin 2HCl]	11.7	–
CC(=O)S[C@@H]1CC2=CC(=O)CC[C@]2(C)[C@H]2CC[C@@]3(C)[C@@H](CC[C@@]34CCC(=O)O4)[C@H]12 [Spironolactone]	6.62	–
Cc1cn([C@H]2C=C[C@@H](CO)O2)c(=O)[nH]c1=O [Stavudine (d4T)]	0	–
CCCCCCCCCCCCCCCCCC(=O)O [Stearic acid]	6.72	–
CC(C)(C)C(O)/C=C/c1ccc2c(c1)OCO2 (stereo not drawn) [Stiripentol]	12.5	–

Structure (SMILES)	inhibition at 100 µM [%]	%inhibition [%]
CN[C@@H]1[C@H](O[C@H]2[C@H](O[C@H]3[C@H](O)[C@@H](O)[C@H](N=C(N)N)[C@@H](O)[C@@H]3N=C(N)N)O[C@@H](C)[C@]2(O)C=O)O[C@@H](CO)[C@H](O)[C@H]1O [Streptomycin sulfate]	0	–
C[N+](C)(C)CCOC(=O)CCC(=O)OCC[N+](C)(C)C [Succinylcholine Chloride Dihydrate]	0	–
O=C(O)CCC(=O)Nc1ccc(S(=O)(=O)Nc2nccs2)cc1 [Succinylsulfathiazole]	0	–
CC1(C)[C@H](C(=O)O)N2C(=O)C[C@H]2S1(=O)=O [Sulbactam sodium]	16.4	–
CC1(C)[C@H](C(=O)O)N2C(=O)C[C@H]2S1(=O)=O [Sulbactam]	–	20.75
Nc1ccc(S(=O)(=O)NC(=O)c2ccccc2)cc1 [Sulfabenzamide]	0	–
CC(=O)NS(=O)(=O)c1ccc(N)cc1 [Sulfacetamide Sodium]	–	3.132
CC(=O)NS(=O)(=O)c1ccc(N)cc1 [Sulfacetamide sodium salt hydrate]	–	8.356
CC(=O)NS(=O)(=O)c1ccc(N)cc1 [Sulfacetamide]	–	27.01
Nc1ccc(S(=O)(=O)Nc2ncccn2)cc1 [Sulfadiazine]	–	29.9
COc1ncnc(NS(=O)(=O)c2ccc(N)cc2)c1OC [Sulfadoxine]	0	–
N=C(N)NS(=O)(=O)c1ccc(N)cc1 [Sulfaguanidine]	8.72	–
COc1nccnc1NS(=O)(=O)c1ccc(N)cc1 [Sulfalene(SMPZ)]	5.42	–
Nc1ccc(S(=O)(=O)Nc2cncc(Cl)n2)cc1 [Sulfalozine sodium]	0	–
Cc1ccnc(NS(=O)(=O)c2ccc(N)cc2)n1 [Sulfamerazine]	0	–
COc1cnc(NS(=O)(=O)c2ccc(N)cc2)nc1 [Sulfameter]	0	–
Cc1cc(C)nc(NS(=O)(=O)c2ccc(N)cc2)n1 [Sulfamethazine Sodium Salt]	–	12.6
Cc1cc(C)nc(NS(=O)(=O)c2ccc(N)cc2)n1 [Sulfamethazine]	–	0
Cc1nnc(NS(=O)(=O)c2ccc(N)cc2)s1 [Sulfamethizole]	15.9	–
